Entries after “also recorded” stand apart in the source; their conditions may differ.
Columns and labels:
A2A-R = biological target: T1, A2A-R (Rattus norvegicus, UniProt P30543); test: Cellular cAMP content of ST14A cells; assay type: cell-based; conditions: for intracellular cAMP level: 20 min at RT, CGS21680 10 μM, T1-C 10 μM, T1-11 26.8 μM
T1 construct: treating ST14A cells (Ehrlich, et al. (2001)) with either T1-C or T1-11 also elevated the intracellular cAMP level; endogenous in cells; host or cells: ST14A striatal progenitor cell line

R6/2 mice [1] = test: Survival / lifespan of R6/2 mice; assay type: in vivo, mouse; conditions: for lifespan of R6/2 mice: drinking water from the age of 4 weeks, T1-C 0.5 mg/mL, T1-11 0.05 mg/mL; for mean survival time: mean±SEM, n=7~8, T1-C 0.5 mg/mL, T1-11 0.05 mg/mL in drinking water, control 94.9±2.5
PC12 cells = test: MTT assay: protection of serum-deprived PC12 cells from apoptosis; assay type: cell-based, rat; conditions: 24 h treatment
Method: PC12 cells purchased from American Type Culture Collection (ATCC, Manassas, Va., USA) were maintained in Dulbecco's Modified Eagle Medium (DMEM) supplemented with 10% horse serum and 5% fetal bovine serum and incubated in a CO2 incubator (5%) at 37° C. The striatal progenitor cell line (ST14A) was obtained from Dr. E. Cattaneo (University of Milano, Italy) and was maintained in an incubation chamber with 10% CO2-90% air at 33° C. as described previously (Ehrlich, et al. (2001)).
PC12 cells were serum-deprived by three washes of phosphate buffered saline (PBS) and resuspended in DMEM. The suspended cells were plated on 96-well plates (1×10^4 cells/well) and treated with the indicated reagent(s). After treatment for 21 h, 3-(4,5-dimethylthiazol-2-yl)-2,5-diphenyl tetrazolium bromide (MTT) was added to the medium (0.5 mg/mL) and incubated at 37° C. for another 3 h. After discarding the medium, 100 μl dimethyl sulfoxide (DMSO) was then applied to each well to dissolve the formazan crystals and the absorbances at 570 and 630 nm in each well were measured on a micro-enzyme linked immunosorbent assay (ELISA) reader.

Body weight of R6/2 mice = assay type: in vivo, mouse; conditions: drinking water from the age of 4 weeks, T1-C 0.5 mg/mL, T1-11 0.05 mg/mL
R6/2 mice [2] = test: Rotarod performance (motor coordination) in R6/2 mice; assay type: in vivo, mouse; conditions: drinking water from the age of 4 weeks, T1-C 0.5 mg/mL, T1-11 0.05 mg/mL
Excerpt: Male R6/2 mice and littermate controls were mated to female control mice (B6CBAFI/J). Mice were obtained from Jackson Laboratories, Bar Harbor, Me., USA. Offspring were identified by the PCR genotyping technique of genomic DNA extracted from tail tissues using primers located in the transgene (5′-[…]-3′ (SEQ ID NO: 1) and 5′-[…]-3′ (SEQ ID NO: 2)) to ensure that the number of CAG repeats remained approximately 150. In total, 67 R6/2 transgenic mice were used in this study. Animals were housed at the Institute of Biomedical Sciences Animal Care Facility under a 12-h light/dark cycle. Daily injections of the indicated reagent were given between 13:00 and 18:00. Body weights of mice were recorded once daily, prior to diet administration. Animal experiments were performed under protocols approved by the Academia Sinica Institutional Animal Care and Utilization Committee, Taiwan.
Motor coordination was assessed using a rotarod apparatus (UGO BASILE, Comerio, Italy) at a constant speed (12 rpm) over the period of 2 min (Carter, et al. (1999)). All mice were trained for 2 days at the age of 6 weeks to allow them to become acquainted with the rotarod apparatus. Animals were then tested three times per week from the ages of 7 to 12 weeks. For each test, animals were placed in the apparatus before initiation of rotation. Latency to falling was automatically recorded. […]

[3] = tested on: primary astrocytes from wildtype (WT) and R6/2-J2 mice; test: LPS-induced iNOS expression and NO production in primary astrocytes; assay type: cell-based, mouse; conditions: primary astrocytes from WT and R6/2-J2 mice
Method: Primary astrocytes were purified from neonatal (1-2-day old) brains of R6/2 HD mice (Mangiarini, L., et al., Exon 1 of the HD gene with an expanded CAG repeat is sufficient to cause a progressive neurological phenotype in transgenic mice. Cell 87, 493-506 (1996)) and their littermates as the WT control. In brief, the cortexes were carefully removed, digested with 0.05% trypsin-EDTA (Gibco, Grand Island, N.Y., USA) at 37° C. for 10 min, then mechanically dissociated by gentle pipetting and passed through a 70-μm-pore nylon mesh. […] Mutant Htt expression was measured by a mouse monoclonal anti-human Htt antibody (EM48) (1:200 dilution, Chemicon International, Temecula, Calif., USA). The purity of the primary astrocyte cultures was determined by immunocytochemical staining using an antibody against an astrocyte-specific marker (GFAP, dilution 1:1000; Sigma, St. Louis, Mo., USA) or a microglia-specific marker (anti-CD11b, dilution 1:200, Serotec, Oxford, UK). […]
Protein concentrations were determined using the Bio-Rad Protein Assay Dye Reagent Concentrate (Bio-Rad, Hercules, Calif., USA). […]
For the measurement of NO production, cells (5×10^5 cells/well) were treated with lipopolysaccharide (LPS, 0.5 μg/ml) in the presence of the desired drug for 72 hr. […] The absorbance at 540 nm was then monitored. […]

BV2 cells = test: LPS-evoked iNOS induction and NO production in BV2 cells; assay type: cell-based

T1 sequence (P30543 whole entry): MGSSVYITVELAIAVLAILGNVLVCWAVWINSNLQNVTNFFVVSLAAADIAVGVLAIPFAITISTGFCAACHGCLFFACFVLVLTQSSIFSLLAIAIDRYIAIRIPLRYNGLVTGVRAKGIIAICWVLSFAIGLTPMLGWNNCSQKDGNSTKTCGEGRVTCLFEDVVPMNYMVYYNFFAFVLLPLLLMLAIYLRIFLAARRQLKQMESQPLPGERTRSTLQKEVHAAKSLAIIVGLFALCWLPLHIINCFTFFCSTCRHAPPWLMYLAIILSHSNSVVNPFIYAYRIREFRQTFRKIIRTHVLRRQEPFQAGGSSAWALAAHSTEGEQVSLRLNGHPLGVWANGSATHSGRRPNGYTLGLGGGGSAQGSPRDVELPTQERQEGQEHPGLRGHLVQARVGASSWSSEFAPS

SMILES	suppression of the cAMP response by A2A-R antagonist (A2A-R)	lifespan of R6/2 mice (R6/2 mice [1])	mean survival time (R6/2 mice [1]) [days]	protection of PC12 cells from apoptosis induced by serum withdrawal (cell viability, MTT) (PC12 cells)	intracellular cAMP level (A2A-R)	body weight loss (Body weight of R6/2 mice)	progressive deterioration of motor coordination (rotarod performance) (R6/2 mice [2])	LPS-induced inflammation (iNOS expression and NO production) [3]	LPS-evoked NO production (BV2 cells)	LPS-evoked iNOS induction (BV2 cells)
Cn1c(=O)c2c(nc(/C=C/c3cccc(Cl)c3)n2C)n(C)c1=O [CSC, reference compound]	suppressed	–	–	–	–	–	–	–	–	–
Oc1ccc(CSCc2ccc(O)cc2)cc1 [T1-C, 4,4′-dihydroxybenzyl sulfide]	–	elongated	106.7 ± 4.6	active	elevated	ameliorated	markedly delayed	–	–	–
OCC1OC(n2cnc3c(NCc4ccc(O)cc4)ncnc32)C(O)C1O (stereo not shown) [T1-11, 2-(6-(4-hydroxybenzylamino)-9H-purin-9-yl)-5-(hydroxymethyl)tetrahydrofuran-3,4-diol]	–	elongated	104.9 ± 5.2	active; also recorded: much more potent than T1-C	elevated	ameliorated	markedly delayed	effectively suppressed	reduces	reduces

Source: patent publication US8129357B2, “Method of making and using an adenosine analogue” (Academia Sinica, priority 2006, dated 2012)
